Results: US7119180B2, “2-halogenated derivatives of 5-O-desosaminyl-erythronolide A, their preparation process and their antibiotic use” (Aventis Pharma S.A., priority 1998, dated 2006)

What was measured:
Assay type in all cases: cell-based
S. pneumoniae 032UC1 = assay: Method of dilutions in liquid medium (M.I.C.); details: reading after 24 hours, 37° C.
Procedure: (§1) Method of Dilutions in Liquid Medium A series of tubes were prepared in which the same quantity of nutritive sterile medium was distributed. Increasing quantities of the product to be studied were distributed into each tube and then each tube was seeded with a bacterial strain. After incubation for twenty-four hours in an oven at 37° C., the growth inhibition was evaluated by transillumination, which allowed the minimal inhibitory concentrations (M.I.C.) to be determined, expressed in micrograms/ml. The following results were obtained: (reading after 24 hours)

S. agalactiae 02B1HT1 = assay: Method of dilutions in liquid medium (M.I.C.); details: reading after 24 hours, 37° C.
Procedure: as §1

S. agalactiae 02B1SJ1c = assay: Method of dilutions in liquid medium (M.I.C.); details: reading after 24 hours, 37° C.
Procedure: as §1

[1] = test system: Streptococcus gr. G 02GOGR5; assay: Method of dilutions in liquid medium (M.I.C.); details: reading after 24 hours, 37° C.
Procedure: as §1

S. pneumoniae 030GR20 = assay: Method of dilutions in liquid medium (M.I.C.); details: reading after 24 hours, 37° C.
Procedure: as §1

S. faecalis 02D2UC1 = assay: Method of dilutions in liquid medium (M.I.C.); details: reading after 24 hours, 37° C.
Procedure: as §1

S. mitis 02MitCB1 = assay: Method of dilutions in liquid medium (M.I.C.); details: reading after 24 hours, 37° C.
Procedure: as §1

S. aureus 011GO25I = assay: Method of dilutions in liquid medium (M.I.C.); details: reading after 24 hours, 37° C.
Procedure: as §1

S. aureus 011UC4 = assay: Method of dilutions in liquid medium (M.I.C.); details: reading after 24 hours, 37° C.
Procedure: as §1

S. faecium 02D3HT1 = assay: Method of dilutions in liquid medium (M.I.C.); details: reading after 24 hours, 37° C.
Procedure: as §1

S. epidermidis 012GO11I = assay: Method of dilutions in liquid medium (M.I.C.); details: reading after 24 hours, 37° C.
Procedure: as §1

S. pyogenes 02A1UC1 = assay: Method of dilutions in liquid medium (M.I.C.); details: reading after 24 hours, 37° C.
Procedure: as §1

[2] = test system: Haemophilus Influenzae 351CA1; assay: Activity on Gram- bacterial strains
Procedure: (§2) Method of Dilutions in Liquid Medium
(§3) A series of tubes were prepared in which the same quantity of nutritive sterile medium was distributed. Increasing quantities of the product to be studied were distributed into each tube and then each tube was seeded with a bacterial strain. After incubation for twenty-four hours in an oven at 37° C., the growth inhibition was evaluated by transillumination, which allowed the minimal inhibitory concentrations (M.I.C.) to be determined, expressed in micrograms/ml.

[3] = test system: Haemophilus Influenzae 351CB12; assay: Activity on Gram- bacterial strains
Procedure: as §2, §3

[4] = test system: Haemophilus Influenzae 351HT3; assay: Activity on Gram- bacterial strains
Procedure: as §2, §3

Molecule | minimal inhibitory concentrations (M.I.C.) (S. pneumoniae 032UC1) [micrograms/ml] | minimal inhibitory concentrations (M.I.C.) (S. agalactiae 02B1HT1) | minimal inhibitory concentrations (M.I.C.) (S. agalactiae 02B1SJ1c) [micrograms/ml] | minimal inhibitory concentrations (M.I.C.) [1] [micrograms/ml] | minimal inhibitory concentrations (M.I.C.) (S. pneumoniae 030GR20) | minimal inhibitory concentrations (M.I.C.) (S. faecalis 02D2UC1) [micrograms/ml] | minimal inhibitory concentrations (M.I.C.) (S. mitis 02MitCB1) [micrograms/ml] | minimal inhibitory concentrations (M.I.C.) (S. aureus 011GO25I) [micrograms/ml] | minimal inhibitory concentrations (M.I.C.) (S. aureus 011UC4; S. aureus 011UC4 + 50% serum) [micrograms/ml] | minimal inhibitory concentrations (M.I.C.) (S. aureus 011UC4; S. aureus 011UC4) [micrograms/ml] | minimal inhibitory concentrations (M.I.C.) (S. faecium 02D3HT1) | minimal inhibitory concentrations (M.I.C.) (S. epidermidis 012GO11I) [micrograms/ml] | minimal inhibitory concentrations (M.I.C.) (S. pyogenes 02A1UC1) | activity on Gram- bacterial strain [2] | activity on Gram- bacterial strain [3] | activity on Gram- bacterial strain [4]
CC[C@H]1OC(=O)[C@@](C)(F)C(=O)[C@H](C)[C@@H](O[C@@H]2O[C@H](C)C[C@H](N(C)C)[C@H]2O)[C@](C)(OC)C[C@@H](C)C2=NCCN3C(=O)O[C@@]1(C)[C@H]3[C@H]2C (relative stereo) [Example 1, [3 as-(3aR*,4S*,7R*,9S*,10S*,11S*,13S*,15S*,15aS*)]-4-ethyl-7-fluoro-3a,4,10,11,12,13,15,15a-octahydro-11-methoxy-3a,7,9,11,13,15-hexamethyl-10-[[3,4,6-trideoxy-3-(dimethyl-amino)-beta-D-xylo-hexopyranosyl]oxy]-14,1-(nitriloethano)-2H-oxacyclotetradecino[4,3-d]oxazole-2,6,8(9H)-trione] | 0.080 | # 0.02 micrograms/ml | 1.200 | 0.040 | # 0.02 micrograms/ml | 0.040 | 0.040 | 0.600 | 0.040 | 0.150 | # 0.02 micrograms/ml | 0.300 | 0.040 micrograms/ml | useful activity | useful activity | useful activity
(3aS,4R,7S,9R,10R,11R,13R,15R,15aR,18S)-4-ethyl-7-fluoro-3a,4,10,11,12,13,15,15a-octahydro-18-(hydroxymethyl)-11-methoxy-3a,7,9,11,13,15-hexamethyl-10-[[3,4,6-trideoxy-3-(dimethylamino)-beta-D-xylo-hexopyranosyl]oxy]-14,1-(nitriloethano)-2H-oxacyclotetradecino[4,3-d]oxazole-2,6,8(7H,9H)-trione [Example 3] | 0.02 | 0.02 micrograms/ml | 0.02 | 0.02 | 0.02 micrograms/ml | 0.02 | 0.02 | 0.040 | 0.040 | 0.040 | 0.02 micrograms/ml | 0.150 | # 0.02 micrograms/ml | – | – | –
